Source: PubChem BioAssay (NCI)
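Compound exposure: 48 hours, 5 concentrations, 96-well plates. At the TGI there is no net growth.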 Where a SMILES comes first, the peptide text is derived from it. [ ]: non-standard residue; d: D form. The star is where a group is joined. Phe(4-NO2) = N[CH](Cc1ccc([N+](=O)[O-])cc1)C(=O)O; Boc = CC(C)(C)OC(=O)*; OBn = c1ccc(CO*)cc1

Columns and labels:
Assay in all cases: inhibition of tumour cell growth, NCI panel, 48 h
[1] = system: OVCAR-3 ovarian
[2] = system: CCRF-CEM leukemia
[3] = system: M14 melanoma
[4] = system: SK-MEL-28 melanoma
[5] = system: 786-0 renal
[6] = system: NCI-H23 lung
[7] = system: MOLT-4 leukemia
[8] = system: NCI-H226 lung
[9] = system: UACC-257 melanoma
[10] = system: SN12C renal

| SMILES | TGI [1] [µM] | TGI [2] [µM] | TGI [3] [µM] | TGI [4] [µM] | TGI [5] [µM] | TGI [6] [µM] | TGI [7] [µM] | TGI [8] [µM] | TGI [9] [µM] | TGI [10] [µM] |
| --- | --- | --- | --- | --- | --- | --- | --- | --- | --- | --- |
| O=C(Nc1ccccc1)O/N=C(/CBr)c1ccccc1 | 37.9 | > 100 | 28.4 | 43.2 | 26.6 | 26.2 | > 100 | 60.8 | 35.5 | 25 |
| Cc1ccc([N+](=O)[O-])cc1S(=O)(=O)Nc1ccc(C2=NN(c3ccc([N+](=O)[O-])cc3[N+](=O)[O-])C(c3ccccc3)C2)cc1 (stereo not given) | 28.4 | > 100 | 51.1 | > 100 | 30.3 | 31.5 | 70.8 | 35.6 | 40.7 | 33.2 |
| C=CC[C@H]1[C@@H](O[Si](C)(C)C(C)(C)C)[C@H](n2ccc(=O)[nH]c2=O)O[C@@H]1CO[Si](C)(C)C(C)(C)C | 3.12 | 16 | 3.23 | 3.01 | 3.01 | 5.93 | 8.66 | 18.6 | 5.34 | 3.32 |
| CC(C)/C(Cl)=N/OC(=O)Nc1ccc(F)c(Cl)c1 | 9.11 | > 20.2 | 10.6 | 5.46 | 2.96 | 27.8 | 4.72 | 30.9 | 26.5 | 3.21 |
| O=c1[nH]nc(Cc2ccccc2)n1/N=C/c1c[nH]c2ccccc12 | > 100 | > 100 | > 100 | > 100 | > 100 | > 100 | > 100 | > 100 | > 100 | > 100 |
| Cc1ccc(C(=O)OC[C@H]2CC[C@@H](n3cc(N(C)C4CCCCC4)c(=O)[nH]c3=O)O2)cc1 | 54.4 | 93 | 32.6 | > 100 | > 100 | > 100 | > 100 | 56.6 | 98.5 | 39.5 |
| COC(=O)CCC(NC(=O)OC(C)(C)C)C(=O)NC(Cc1ccc([N+](=O)[O-])cc1)C(=O)NCC(=O)OCc1ccccc1 (stereo not given) (Boc-Glu(OMe)-[Phe(4-NO2)]-Gly-OBn; configuration not given here) | > 100 | > 100 | > 100 | > 100 | > 100 | > 100 | > 100 | > 100 | > 100 | > 100 |
| CC(=O)OC[C@H]1O[C@@H](O[C@H]2[C@H](OC(C)=O)C=CO[C@@H]2COC(C)=O)C(OC(C)=O)[C@H]2OC(C)(C)O[C@H]21 (stereo not given in full) | > 100 | > 100 | > 100 | > 100 | > 100 | > 100 | > 100 | > 100 | > 100 | > 100 |
| CC(C)(CO)CNc1cc(=O)[nH]c(N)n1 | > 100 | > 100 | > 100 | > 100 | > 100 | > 100 | > 100 | > 100 | > 100 | > 100 |
| Cc1nc2ccc(S(=O)(=O)Nc3ccc(Cl)cc3)cc2c(=O)n1NC(=O)CNc1ccc(Cl)cc1 | > 100 | > 100 | > 100 | > 100 | > 100 | > 100 | > 100 | > 100 | > 100 | > 100 |
| Oc1ccc(/C=C\c2nnc(/C=C\c3ccc(O)c(O)c3)s2)cc1O | 16.3 | 2.16 | 26 | 25.2 | 38.6 | 17.7 | 11.7 | 20 | 35.7 | 24 |
| CCN1CC(C)Cn2c(=O)[nH]c3cc(Br)cc1c32 (stereo not given) | 77.5 | > 100 | > 100 | > 100 | > 100 | > 100 | 81.9 | > 100 | > 100 | > 100 |
| NCCC(N)C(=O)O (stereo not given) | > 100 | > 100 | > 100 | > 100 | > 100 | > 100 | > 100 | > 100 | > 100 | > 100 |
| CN1CC2=C(OC(N)=C(C#N)C2c2cccs2)/C(=C/c2cccs2)C1 (stereo not given) | 56.5 | > 29 | > 55.9 | > 100 | > 69.9 | > 100 | > 26.5 | > 100 | > 100 | > 100 |
| COc1cccc2cc(C)c(C(=O)c3ccccc3)nc12 | > 100 | > 100 | > 100 | > 100 | > 100 | > 100 | > 100 | > 100 | > 100 | > 100 |
| Cc1ccc(C)n2c1nc1ccc3ccccc3c12 | > 100 | > 100 | > 100 | > 100 | > 100 | > 100 | > 100 | > 100 | > 100 | > 100 |
| N=C(N)SCCON1C(=O)c2ccccc2C1=O | > 100 | > 100 | > 100 | > 100 | > 100 | > 100 | > 100 | > 100 | > 100 | > 100 |
| OC(C1CCC=NN1C(O)(C(F)(F)F)C(F)(F)F)(C(F)(F)F)C(F)(F)F (stereo not given) | > 10 | > 10 | > 10 | > 10 | > 10 | > 10 | > 10 | > 10 | > 10 | > 10 |
| COC1=CC(=O)c2ccccc2C1(CCC=C(C)C)C1=NC(C)(C)CO1 (stereo not given) | > 100 | > 100 | > 100 | > 100 | > 100 | > 100 | > 100 | > 100 | > 100 | > 100 |
| Cc1c(C)c(C)c(-n2[nH]c(=O)n(C)c2=O)c(C)c1C | > 100 | > 100 | > 100 | > 100 | > 100 | > 100 | > 100 | > 100 | > 100 | > 100 |
| CC1=NOC2(C1)/C(=N/O)CCC/C2=N\O (stereo not given) | > 100 | > 100 | > 100 | > 100 | > 100 | > 100 | > 100 | > 100 | > 100 | > 100 |
